Results: patent publication EP0108285B1, “Antiviral purine derivatives” (THE WELLCOME FOUNDATION LIMITED, priority 1982, dated 1984)
Converted amounts (≈) assume the structure as drawn.

Key:
xanthine oxidase = molecular target: T1, xanthine oxidase (Bos taurus, UniProt P80457); test: Oxidation by xanthine oxidase (enzyme studies); type: biochemical; settings: xanthine oxidase from bovine milk; compared with 2-aminopurine
T1 construct: xanthine oxidase from bovine milk; from tissue; host or cells: bovine milk
T1 sequence (P80457 whole entry): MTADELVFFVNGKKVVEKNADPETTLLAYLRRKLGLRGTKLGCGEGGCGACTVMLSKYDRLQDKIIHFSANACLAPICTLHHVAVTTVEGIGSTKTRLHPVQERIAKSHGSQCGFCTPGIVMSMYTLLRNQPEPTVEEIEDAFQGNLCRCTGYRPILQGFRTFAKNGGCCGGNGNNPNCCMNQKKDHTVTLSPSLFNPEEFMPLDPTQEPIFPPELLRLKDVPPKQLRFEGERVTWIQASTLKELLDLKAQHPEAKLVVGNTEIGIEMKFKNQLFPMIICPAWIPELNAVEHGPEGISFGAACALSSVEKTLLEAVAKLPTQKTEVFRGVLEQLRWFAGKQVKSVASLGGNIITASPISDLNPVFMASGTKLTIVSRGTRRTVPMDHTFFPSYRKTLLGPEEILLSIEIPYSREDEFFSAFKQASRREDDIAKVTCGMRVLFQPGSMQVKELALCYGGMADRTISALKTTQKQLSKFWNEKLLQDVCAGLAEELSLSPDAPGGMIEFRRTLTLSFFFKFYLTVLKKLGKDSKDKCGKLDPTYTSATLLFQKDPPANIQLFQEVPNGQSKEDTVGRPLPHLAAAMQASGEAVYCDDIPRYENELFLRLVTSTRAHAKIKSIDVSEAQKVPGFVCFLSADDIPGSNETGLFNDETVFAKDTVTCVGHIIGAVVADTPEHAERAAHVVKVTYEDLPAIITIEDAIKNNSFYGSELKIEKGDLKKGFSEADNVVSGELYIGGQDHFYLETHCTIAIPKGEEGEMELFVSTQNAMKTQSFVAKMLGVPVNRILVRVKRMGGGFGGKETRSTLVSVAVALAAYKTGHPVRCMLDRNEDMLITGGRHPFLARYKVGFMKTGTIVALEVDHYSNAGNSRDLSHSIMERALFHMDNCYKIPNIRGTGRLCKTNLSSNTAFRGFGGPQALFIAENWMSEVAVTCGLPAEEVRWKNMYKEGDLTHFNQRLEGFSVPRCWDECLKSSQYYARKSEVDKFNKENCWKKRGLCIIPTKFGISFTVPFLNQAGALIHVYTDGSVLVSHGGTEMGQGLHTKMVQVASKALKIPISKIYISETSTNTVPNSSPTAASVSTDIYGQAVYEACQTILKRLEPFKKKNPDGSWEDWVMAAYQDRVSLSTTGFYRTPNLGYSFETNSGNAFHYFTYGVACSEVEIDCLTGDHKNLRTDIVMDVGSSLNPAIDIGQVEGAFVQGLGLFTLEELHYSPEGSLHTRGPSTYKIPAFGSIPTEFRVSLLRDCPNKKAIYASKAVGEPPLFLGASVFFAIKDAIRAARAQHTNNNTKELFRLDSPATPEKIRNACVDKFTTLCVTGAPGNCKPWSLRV
Excerpt: The discovery that the 6-hydrogen purine above can be readily converted into its corresponding 6-hydroxy analogue is surprising since in previous studies with xanthine oxidase from bovine milk (H. Lettre et al (1967) Biochem. Pharmacol., 16, 1747-1755; T. A. Krenitsky et al (1972) Arch. Biophys., 150, 585-599), it was shown that 9-substitution obliterates or greatly diminishes the rate at which a variety of purines are oxidised.

physchem = type: physicochemical; settings: water
Excerpt: This improved water-solubility enables 6-deoxyacyclovir to be used in a greater variety of aqueous pharmaceutical formulations which require some solubilisation of the drug.

[1] = Toxicity study in beagle dogs, per os; type: in vivo; settings: 40mg/kg/day for 5 consecutive days, sacrificed at end of treatment or after a 2-week post-dose period
Protocol: Two male and 2 female beagle dogs were given 6-deoxyacyclovir per os ([…] daily for 5 consecutive days) at a dose level of 40mg/kg/day. There were no effects in 1 male and 1 female sacrificed at the end of the treatment period or in 1 male and 1 female sacrificed after a 2-week post-dose period.

[2] = system: ICI strain of herpes simplex virus Type 1; test: Antiviral activity in mice infected intracerebrally with herpes simplex virus; type: in vivo, CD1 mice; settings: for Mean Reciprocal Survival times / Survival Times (Days): 100mg/kg/dose; for Mean Reciprocal Survival times: virus controls 0.407; for Survival Times (Days): 2-3 hours after infection and twice daily for 4 days, observed over 14 days, groups of 10 mice
Protocol: The mice were divided into groups of 10, one group acting as untreated virus controls and the other groups receiving respectively (A) acyclovir at 100mg/kg/dose (i) subcutaneously (s.c.) (ii) orally (iii) intraperitoneally (i.p.) (B) the compound of Example 1 (6-deoxyacyclovir) at 100mg/kg/dose i) subcutaneously (s.c.) ii) orally iii) intraperitoneally (i.p.). The treatment groups received dosages of the drug 2-3 hours after infection and twice daily for 4 days. Observations were made over 14 days survival times were recorded.

[3] = Urinary excretion of acyclovir after oral dosing of rats (radioimmunoassay); type: in vivo, Long Evans male rats; settings: rat, dose 25 mg/kg, urine samples, read-out: %Dose Excreted as Acyclovir
Protocol: The following experiments carried out to determine the urinary excretion and plasma levels of acyclovir after oral dosing of rats with acyclovir, 6-deoxyacyclovir and the 6-amino analogue thereof i.e. 2,6-diamino-9-(2-hydroxyethoxymethyl)-purine, hereinafter referred to as aminoacyclovir.
Long Evans male rats were dosed by intragastric needle with the drug and placed in metabolic cages which separated urine from faeces. The collected urine and plasma samples were analyzed for acyclovir content by a radioimmunoassay.

## Nc1ncc2ncn(COCCO)c2n1 [6-Deoxyacyclovir, 2-Amino-9-(2-hydroxyethoxymethyl)-9H-purine]
Xanthine oxidase
  rate of oxidation by the enzyme: faster rate than the 9- unsubstituted purine
physchem
  solubility: 50 mg/mL (≈ 239 mM)
[1]
  effects (toxicity): no effects
[2]; administered orally
  antiviral action compared with acyclovir: more effective action than acyclovir
[2]; i.p.
  Mean Reciprocal Survival times: 0.233
[2]; oral
  Survival Times (Days): 1+2 1+4 2+5 3+6 1+8 1 survivor
  Mean Reciprocal Survival times: 0.186
[2]; s.c.
  Mean Reciprocal Survival times: 0.289

## Nc1nc2c(ncn2COCCO)c(=O)[nH]1 [Acyclovir, 9-(2-hydroxyethoxymethyl)guanine, reference compound]
physchem
  solubility: 1.23 mg/mL (≈ 5.46 mM)
[3]
  dose excreted at 48 h: 19.2%
[2]; i.p.
  Survival Times (Days): 2+2 2+4 2+5 2+7 1 survivor
  Mean Reciprocal Survival times: 0.242
[2]; oral
  Mean Reciprocal Survival times: 0.325
[2]; s.c.
  Mean Reciprocal Survival times: 0.261
